Measurements: patent publication US10258598B2, “Compounds for use in the prevention or treatment of cancer” ([…], priority 2014, dated 2019)

Experiments:
[1] = system: fibromyxosarcoma; assay: Longevity study: manifestation of subcutaneous fibromyxosarcoma (TMS effect); assay type: in vivo, Wistar rats; conditions: for month in which the last animal manifested the tumor / rats that manifested the tumor to the end of the 32nd month of age / rats that manifested the tumor when the group completed the 30th month of life / age at which the first animal manifested the tumor: N=40; for rats that manifested the tumor to the end of the 32nd month of age / rats that manifested the tumor when the group completed the 30th month of life: saline 20 rats; for age at which the first animal manifested the tumor: saline: 11th month; for span of time from tumor manifestation until death, versus saline: chronic treatment, One-way ANOVA (FIG. 13)
Experimental: The longevity study was performed on 200 male rats received from the breeding colony of the Semmelweis University. The rats were born at the end of February of 2010. After 2-month acclimation period the rats were divided randomly into 5 even groups. The longevity study started at the beginning of May 2010. Animals were observed until their natural deaths. The data in this study represent the changes observed until Oct. 31, 2012, since in the saline-treated group the last animal died on Oct. 31, 2012. As will be shown later a few rats in the enhancer-treated groups were still alive on Nov. 1, 2012.
During the longevity study 5 rats were housed together in polycarbonate cages (height: 18 cm; wide: 42 cm; length: 44 cm) with a stainless steel on the top. Cage bedding was renewed 3 times a week (Monday, Wednesday and Friday). Bodyweight was measured once every month. The treatment started at the end of the second month of their age. […] To avoid the mixing of the groups and individuals, saline-treated rats were signed blue from 1 to 40; D-treated rats were signed green from 1 to 80 (1-40: rats treated with 0.1 mg/kg and 41-80: rats treated with 0.001 mg/kg); B-treated rats were signed black from 1 to 80 (1-40: rats treated with 0.05 mg/kg and 41-80: rats treated with 0.0001 mg/kg).
We carefully observed the appearance of the subcutaneous tumor and followed the development of the tumor until death. Histological analysis was performed post mortem on several rats taken from each group as examples.
The subcutaneous tumors developed in the rats were measured by the two largest diameters. After sacrificing the animals, the tumors were removed, photographs were taken. Tissues were fixed immediately after removal in 10% neutral formalin (in PBS, pH7.0) for 24 hours at room temperature, dehydrated and embedded in paraffin. 3-4 micrometer thick sections were cut and stained by hematoxylin and eosin (HE) as a routine.
Significance in the performance between the groups in the shuttle box was evaluated by multi-factor analysis of variance (ANOVA). Significance regarding the span of time from tumor manifestation until death in rats and regarding aging related changes in bodyweight treated chronically with the enhancer substances was analyzed by One-way ANOVA. Statistical analysis of survival rate and tumor manifestation was performed by the Kaplan-Meier method.

[2] = system: noradrenergic neurons; conditions: Knoll et al., 1999, cited from earlier work
[3] = system: enhancer-sensitive neurons of isolated rat brain stem; conditions: optimal concentration for specific enhancer effect, 3-min collection period; review Knoll, 2005; cited from earlier work
[4] = biological target: T1, MAO-A (Rattus norvegicus, UniProt P21396); conditions: Knoll et al., 1999; cited from earlier work
T1 construct: host or cells: animal dosed in mg/kg (in vivo)
T1 sequence (P21396 1-526): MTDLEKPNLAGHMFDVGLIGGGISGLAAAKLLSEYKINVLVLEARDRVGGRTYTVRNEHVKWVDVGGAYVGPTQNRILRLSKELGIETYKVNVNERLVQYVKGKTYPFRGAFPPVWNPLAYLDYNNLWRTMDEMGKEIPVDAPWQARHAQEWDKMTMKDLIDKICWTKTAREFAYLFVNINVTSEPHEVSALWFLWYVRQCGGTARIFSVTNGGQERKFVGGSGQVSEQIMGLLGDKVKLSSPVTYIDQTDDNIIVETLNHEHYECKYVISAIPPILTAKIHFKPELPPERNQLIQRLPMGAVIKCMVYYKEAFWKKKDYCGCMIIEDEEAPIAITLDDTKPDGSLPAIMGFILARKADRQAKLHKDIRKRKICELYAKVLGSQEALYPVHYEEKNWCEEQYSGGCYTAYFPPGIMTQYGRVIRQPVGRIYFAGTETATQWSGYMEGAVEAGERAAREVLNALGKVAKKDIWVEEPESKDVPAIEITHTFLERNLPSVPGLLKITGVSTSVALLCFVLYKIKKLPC

[5] = system: Wistar-Logan strain of rats; conditions: cited from earlier work
[6] = system: mammary tumors; conditions: ThyagaRajan et al. 1998; cited from earlier work

CCCN[C@H](CCC)Cc1cc2ccccc2o1 [(−)-BPAP, (R)-1-(benzofuran-2-yl)-2-propylamino pentane]
tumor manifestation suppressing (TMS) effect versus saline ([1]; 0.0001 mg/kg, Kaplan-Meier, P<0.001 (FIG. 12)): significantly decreased | tumor manifestation suppressing (TMS) effect versus saline ([1]; 0.0001 mg/kg, Kaplan-Meier, P<0.001 (FIG. 12), listed as BPAP): suppressed the manifestation of the fibromyxosarcoma significantly | month in which the last animal manifested the tumor ([1]; 0.0001 mg/kg): 31 month | rats that manifested the tumor to the end of the 32nd month of age ([1]; 0.0001 mg/kg): 8 rats | rats that manifested the tumor when the group completed the 30th month of life ([1]; 0.0001 mg/kg, P<0.001): 8 rats | age at which the first animal manifested the tumor ([1]; 0.0001 mg/kg): 20 month | age at which the first animal manifested the tumor ([1]; 0.0001 mg/kg, listed as BPAP): 25 month | tumor manifestation suppressing (TMS) effect versus saline ([1]; 0.05 mg/kg, Kaplan-Meier, P<0.001 (FIG. 11)): significantly decreased | tumor manifestation suppressing (TMS) effect versus saline ([1]; 0.05 mg/kg, Kaplan-Meier, P<0.001 (FIG. 11), listed as BPAP): suppressed the manifestation of the fibromyxosarcoma significantly | month in which the last animal manifested the tumor ([1]; 0.05 mg/kg): 29 month | rats that manifested the tumor to the end of the 32nd month of age ([1]; 0.05 mg/kg): 7 rats | rats that manifested the tumor when the group completed the 30th month of life ([1]; 0.05 mg/kg, P<0.001): 7 rats | age at which the first animal manifested the tumor ([1]; 0.05 mg/kg): 13 month | span of time from tumor manifestation until death, versus saline [1]: no significant difference | concentration range of the non-specific enhancer effect relative to the specific one ([2]; Knoll, Miklya, Knoll B, 2002): 10 million times higher concentration range | concentration range of the specific enhancer effect [2]: femto/picomolar concentration range | released amount of labeled transmitter ([3H]-norepinephrine, [3H]-dopamine or [3H]-serotonin) versus absence of substance [3]: significantly higher | dose that blocks the activity of MAO-A [4]: higher than 2 mg/kg

C#CCN(C)[C@H](C)Cc1ccccc1 [(−)-Deprenyl, (R)—N-methyl-N-(1-phenylpropan-2-yl)prop-2-yn-1-amine]
tumor manifestation suppressing (TMS) effect versus saline ([1]; 0.001 mg/kg, Kaplan-Meier (FIG. 10)): not significant | month in which the last animal manifested the tumor ([1]; 0.001 mg/kg): 29 month | rats that manifested the tumor to the end of the 32nd month of age ([1]; 0.001 mg/kg): 15 rats | age at which the first animal manifested the tumor ([1]; 0.001 mg/kg): 12 month | age at which the first animal manifested the tumor ([1]; 0.1 mg/kg s.c. 3 times a week): 16 month | tumor manifestation suppressing (TMS) effect versus saline ([1]; 0.1 mg/kg, Kaplan-Meier, P<0.01 (FIG. 9), listed as (−)-deprenyl): significantly decreased | tumor manifestation suppressing (TMS) effect versus saline ([1]; 0.1 mg/kg, Kaplan-Meier, P<0.01 (FIG. 9), listed as Deprenyl): suppressed the manifestation of the fibromyxosarcoma significantly | month in which the last animal manifested the tumor ([1]; 0.1 mg/kg): 32 month | rats that manifested the tumor to the end of the 32nd month of age ([1]; 0.1 mg/kg): 11 rats | rats that manifested the tumor when the group completed the 30th month of life ([1]; 0.1 mg/kg, P<0.01): 11 rats | span of time from tumor manifestation until death, versus saline [1]: no significant difference | rats that lived longer than the maximum lifespan ever observed in the strain ([5]; out of the 50 treated HP rats): 17 rats | lifespan ([5]; sexually high performing (HP) rats treated for life, n=50, saline HP 151.24±1.36): 185.30±1.96 weeks | lifespan versus saline-treated peers ([5]; sexually low performing (LP) rats treated for life, n=49, saline LP 134.58±2.29 weeks): lived significantly longer than their saline treated peers | released amount of labeled transmitter ([3H]-norepinephrine, [3H]-dopamine or [3H]-serotonin) versus absence of substance [3]: significantly higher | dose inhibiting the development of mammary tumors [6]: ≥ 0.25 mg/kg body weight
